This is an account of results in PubChem BioAssay AID2049 (The Scripps Research Institute Molecular Screening Center, 2009).

SMILES strings stand for the structures. The source made the active and inactive calls. How the calls were made is not given here.

Assay [1] deals with Signal transducer and activator of transcription 1-alpha/beta (Homo sapiens) (UniProt P42224). Put plainly: STAT3 activators, late-stage profile, late-stage follow-up, cell-based, STAT1 reporter, BCL3 qPCR, cytotoxicity (AID 2049). To be noted: STAT3/STAT1 activation, STAT1, Activation.
The test system of a further assay is Cytotoxicity. Described as above. To be noted: human cell reporter, STAT3/STAT1 activation, cytotoxicity panel.

Chain of Signal transducer and activator of transcription 1-alpha/beta (Homo sapiens) (P42224 whole entry, looked up): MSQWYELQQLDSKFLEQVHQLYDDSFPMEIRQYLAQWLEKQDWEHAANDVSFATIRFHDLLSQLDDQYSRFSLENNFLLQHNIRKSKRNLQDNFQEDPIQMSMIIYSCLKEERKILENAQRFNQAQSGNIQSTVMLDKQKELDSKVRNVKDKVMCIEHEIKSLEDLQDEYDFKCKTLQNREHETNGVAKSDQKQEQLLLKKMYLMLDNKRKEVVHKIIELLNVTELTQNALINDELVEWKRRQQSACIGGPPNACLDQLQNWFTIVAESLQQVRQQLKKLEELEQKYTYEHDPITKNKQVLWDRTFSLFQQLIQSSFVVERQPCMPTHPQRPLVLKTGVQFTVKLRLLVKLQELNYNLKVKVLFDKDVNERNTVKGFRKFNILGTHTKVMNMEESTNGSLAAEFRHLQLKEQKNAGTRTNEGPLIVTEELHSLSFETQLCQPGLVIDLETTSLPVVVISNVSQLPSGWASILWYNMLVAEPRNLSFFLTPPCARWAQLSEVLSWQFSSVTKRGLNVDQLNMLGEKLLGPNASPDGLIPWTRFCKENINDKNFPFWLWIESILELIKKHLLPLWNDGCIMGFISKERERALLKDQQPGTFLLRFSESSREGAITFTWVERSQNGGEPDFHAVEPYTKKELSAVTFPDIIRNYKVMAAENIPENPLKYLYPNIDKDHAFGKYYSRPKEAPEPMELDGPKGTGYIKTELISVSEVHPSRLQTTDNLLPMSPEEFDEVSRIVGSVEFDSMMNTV

For `COc1ccc(Cl)cc1NC(=O)c1cc(C2CC2)on1`, the EC50 in assay [1] is > 55.7 µM (inactive).
As to `O=C(Nc1ccccc1Cl)c1cc(C2CC2)on1`, the EC50 in assay [1] was 3.05 µM.
As to `COc1cc(NC(=O)c2cc(C)on2)c(OC)cc1Cl`, the EC50 in assay [1] is > 55.7 µM (inactive).
On the same count and under the same terms, the result for `COc1ccc(OC)c(NC(=O)c2cc(CN3CCCC3)on2)c1` reads > 55.7 µM (inactive); that for `CCCc1cc(C(=O)Nc2cc(OC)c(Cl)cc2OC)no1`, > 55.7 µM (inactive).
Take `COc1ccccc1NC(=O)c1cc(-c2ccccc2)on1`: the EC50 result in assay [1] is “inactive”.
The same measure, in the same setting: for `Nc1c(C(=O)Nc2ccccc2)noc1C(=O)c1ccccc1` the value was > 55.7 µM (inactive); for `COc1cc(NC(=O)c2cc(C3CC3)on2)cc(OC)c1`, “inactive”.
Take `COc1cc(NC(=O)c2cc(C(C)C)on2)c(OC)cc1Cl`: the EC50 in assay [1] is > 55.7 µM (inactive).
For `CN(C(=O)c1cc(C2CC2)on1)c1ccccc1`, in assay [1], the EC50 is > 55.7 µM (inactive).
In the case of `COc1cc(OC)c(NC(=O)c2cc(CN3CCCC3)on2)cc1Cl`, the EC50 in assay [1] is > 55.7 µM (inactive).
On to `COc1cccc(NC(=O)c2cc(C3CC3)on2)c1`, for which the EC50 in assay [1] was 5.23 µM.
Turning to `COc1cc(NC(=O)c2cc(C3CC3)on2)c(OC)cc1Cl`, the CC50 in the assay with Cytotoxicity was greater than 55.7 µM. Also, the EC50 in assay [1] is > 55.7 µM (inactive).
With `COc1cc(NC(=O)c2cc(C3CC3)on2)ccc1Br`, the EC50 entry in assay [1] is “inactive”.
